Here are results for five compounds from ChEMBL document CHEMBL1129116, “Synthesis of cephems bearing olefinic sulfoxide side chains as potential -lactamase inhibitors” (1996).

The structures appear in SMILES notation. Values after ≈ are worked out from the molar mass of the structure shown.

Holding throughout (assay type): functional
In experiment [1] the test system is Escherichia coli. Briefly: Antibacterial activity of compound was measured against Escherichia coli A15119 organism.
The subject of experiment [2] is Staphylococcus aureus. The experiment is described as follows: Antibacterial activity of compound was measured against Staphylococcus aureus A9537 organism.
In experiment [3] the test system is Staphylococcus aureus. Briefly: Antibacterial activity of compound was measured against Staphylococcus aureus (MR) A20699 organism.
The subject of experiment [4] is Klebsiella pneumoniae. The experiment is described as follows: Antibacterial activity of compound was measured against Klebsiella pneumoniae A9432 organism.
Experiment [5] concerns Staphylococcus aureus. The experiment is described as follows: Antibacterial activity of compound was measured against Staphylococcus aureus (MR) CEF1198 organism.

On to `C[S+]([O-])/C=C/C1=C(C(=O)O)N2C(=O)[C@@H](NC(=O)Cc3cccs3)[C@H]2SC1` (some centres undefined), for which the MIC in experiment [1] was found to be 1 µg/mL (≈ 2.42 µM); in experiment [2], 0.03 µg/mL (≈ 0.0727 µM); in experiment [3], 16 µg/mL (≈ 38.8 µM); in experiment [4] it was 0.5 µg/mL (≈ 1.21 µM); in experiment [5] it was 4 µg/mL (≈ 9.7 µM).

For `CS(=O)(=O)/C=C/C1=C(C(=O)O)N2C(=O)[C@@H](NC(=O)Cc3cccs3)[C@H]2SC1`, the MIC in experiment [1] is 0.5 µg/mL (≈ 1.17 µM); in experiment [2], 0.06 µg/mL (≈ 0.14 µM); in experiment [3] it was 4 µg/mL (≈ 9.33 µM); in experiment [4], 0.5 µg/mL (≈ 1.17 µM); in experiment [5], 0.5 µg/mL (≈ 1.17 µM).

For `O=C(Cc1cccs1)N[C@@H]1C(=O)N2C(C(=O)O)=C(/C=C/[S+]([O-])c3ccc([N+](=O)[O-])cc3)CS[C@H]12` (some centres undefined), the MIC is 64 µg/mL (≈ 123 µM) in experiment [1], 0.5 µg/mL (≈ 0.962 µM) in experiment [2], 64 µg/mL (≈ 123 µM) in experiment [3] and 64 µg/mL (≈ 123 µM) in experiment [4].

For the compound `Cc1ccc([S+]([O-])/C=C/C2=C(C(=O)O)N3C(=O)[C@@H](NC(=O)Cc4cccs4)[C@H]3SC2)cc1` (some centres undefined), the MIC in experiment [1] was determined as 4 µg/mL (≈ 8.19 µM); in experiment [2], 0.25 µg/mL (≈ 0.512 µM); in experiment [3], 16 µg/mL (≈ 32.7 µM); in experiment [4], 2 µg/mL (≈ 4.09 µM); in experiment [5], 8 µg/mL (≈ 16.4 µM).

As to `COc1cccc(OC)c1C(=O)N[C@@H]1C(=O)N2[C@@H]1SC(C)(C)[C@@H]2C(=O)O` [METHICILLIN], the MIC in experiment [1] was greater than 128 µg/mL; in experiment [2], 0.5 µg/mL (≈ 1.31 µM); in experiment [3] it was 32 µg/mL (≈ 84.1 µM); in experiment [4], greater than 128 µg/mL; in experiment [5] it was 32 µg/mL (≈ 84.1 µM).

The term MIC denotes the smallest concentration in the dilution series that meets the test's criterion for growth inhibition. A higher MIC goes with weaker potency.
